Read-outs that look alike come from different tables or passages of the source.
What was measured:
ROCK1 = ROCK1 (Homo sapiens (Human), UniProt Q13464); assay: ROCK assay (Caliper LABCHIP peptide phosphorylation), ROCK1; assay type: biochemical; conditions: 5 μM ATP, 1.5 μM peptide substrate;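 further: Read-out is separation of phosphorylated from unphosphorylated peptide, with kinase activity inhibition computed at every concentration of a dose-response series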
ROCK2 = ROCK2 (Homo sapiens (Human), UniProt O75116); assay: ROCK assay (Caliper LABCHIP peptide phosphorylation), ROCK2; assay type: biochemical; conditions: 5 μM ATP, 1.5 μM peptide substrate;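 further: reaction stopped with EDTA, then phosphorylated and unphosphorylated peptide resolved by microfluidic electrophoresis, kinase inhibition computed at each compound concentration in dose-response series, DMSO under 2%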
[1] = system: congestive heart failure in Dahl salt-sensitive rats; conditions: cited from earlier work
neointimal formation = conditions: rats, balloon injury model; cited from earlier work
[2] = system: rat models of hypertension; conditions: cited from earlier work
[3] = system: IL-1 beta-induced coronary stenosis; conditions: long term treatment; cited from earlier work

Sequence of ROCK1 (Q13464 whole entry, species assumed): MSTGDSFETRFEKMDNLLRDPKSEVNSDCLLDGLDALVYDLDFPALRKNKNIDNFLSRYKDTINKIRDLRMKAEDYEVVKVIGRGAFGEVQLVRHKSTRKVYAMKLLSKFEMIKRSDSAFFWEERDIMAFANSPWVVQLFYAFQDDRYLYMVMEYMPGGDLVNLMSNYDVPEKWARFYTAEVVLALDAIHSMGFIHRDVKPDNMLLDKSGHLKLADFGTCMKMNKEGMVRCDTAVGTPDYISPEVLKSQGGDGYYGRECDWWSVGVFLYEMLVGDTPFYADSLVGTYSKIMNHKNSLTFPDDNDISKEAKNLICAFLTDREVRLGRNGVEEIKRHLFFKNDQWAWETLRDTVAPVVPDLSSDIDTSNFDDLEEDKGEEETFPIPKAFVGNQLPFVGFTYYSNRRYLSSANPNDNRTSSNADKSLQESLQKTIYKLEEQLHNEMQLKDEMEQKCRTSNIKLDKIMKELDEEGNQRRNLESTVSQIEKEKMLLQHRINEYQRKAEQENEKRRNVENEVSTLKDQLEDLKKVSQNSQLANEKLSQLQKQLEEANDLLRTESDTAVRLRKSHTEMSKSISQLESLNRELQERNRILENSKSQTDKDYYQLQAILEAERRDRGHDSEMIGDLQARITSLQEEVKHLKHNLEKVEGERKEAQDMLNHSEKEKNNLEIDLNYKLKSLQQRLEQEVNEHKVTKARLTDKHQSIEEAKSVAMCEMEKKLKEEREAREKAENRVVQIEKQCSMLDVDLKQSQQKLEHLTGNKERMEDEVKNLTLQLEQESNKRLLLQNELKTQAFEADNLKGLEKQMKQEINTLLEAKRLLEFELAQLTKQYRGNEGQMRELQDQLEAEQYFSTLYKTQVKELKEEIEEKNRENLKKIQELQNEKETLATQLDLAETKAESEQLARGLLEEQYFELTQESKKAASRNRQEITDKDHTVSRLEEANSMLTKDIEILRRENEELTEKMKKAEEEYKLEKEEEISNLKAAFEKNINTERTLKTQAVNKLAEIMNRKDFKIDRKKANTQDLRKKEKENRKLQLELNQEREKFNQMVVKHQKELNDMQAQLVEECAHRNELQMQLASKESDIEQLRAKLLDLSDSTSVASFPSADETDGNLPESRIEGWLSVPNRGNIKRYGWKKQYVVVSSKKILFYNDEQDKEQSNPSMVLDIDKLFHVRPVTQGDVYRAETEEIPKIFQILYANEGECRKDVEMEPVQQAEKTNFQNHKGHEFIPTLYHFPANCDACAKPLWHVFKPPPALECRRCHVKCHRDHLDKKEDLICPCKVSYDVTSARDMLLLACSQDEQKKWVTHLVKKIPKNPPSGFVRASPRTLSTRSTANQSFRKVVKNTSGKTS
Sequence of ROCK2 (O75116 whole entry, species assumed): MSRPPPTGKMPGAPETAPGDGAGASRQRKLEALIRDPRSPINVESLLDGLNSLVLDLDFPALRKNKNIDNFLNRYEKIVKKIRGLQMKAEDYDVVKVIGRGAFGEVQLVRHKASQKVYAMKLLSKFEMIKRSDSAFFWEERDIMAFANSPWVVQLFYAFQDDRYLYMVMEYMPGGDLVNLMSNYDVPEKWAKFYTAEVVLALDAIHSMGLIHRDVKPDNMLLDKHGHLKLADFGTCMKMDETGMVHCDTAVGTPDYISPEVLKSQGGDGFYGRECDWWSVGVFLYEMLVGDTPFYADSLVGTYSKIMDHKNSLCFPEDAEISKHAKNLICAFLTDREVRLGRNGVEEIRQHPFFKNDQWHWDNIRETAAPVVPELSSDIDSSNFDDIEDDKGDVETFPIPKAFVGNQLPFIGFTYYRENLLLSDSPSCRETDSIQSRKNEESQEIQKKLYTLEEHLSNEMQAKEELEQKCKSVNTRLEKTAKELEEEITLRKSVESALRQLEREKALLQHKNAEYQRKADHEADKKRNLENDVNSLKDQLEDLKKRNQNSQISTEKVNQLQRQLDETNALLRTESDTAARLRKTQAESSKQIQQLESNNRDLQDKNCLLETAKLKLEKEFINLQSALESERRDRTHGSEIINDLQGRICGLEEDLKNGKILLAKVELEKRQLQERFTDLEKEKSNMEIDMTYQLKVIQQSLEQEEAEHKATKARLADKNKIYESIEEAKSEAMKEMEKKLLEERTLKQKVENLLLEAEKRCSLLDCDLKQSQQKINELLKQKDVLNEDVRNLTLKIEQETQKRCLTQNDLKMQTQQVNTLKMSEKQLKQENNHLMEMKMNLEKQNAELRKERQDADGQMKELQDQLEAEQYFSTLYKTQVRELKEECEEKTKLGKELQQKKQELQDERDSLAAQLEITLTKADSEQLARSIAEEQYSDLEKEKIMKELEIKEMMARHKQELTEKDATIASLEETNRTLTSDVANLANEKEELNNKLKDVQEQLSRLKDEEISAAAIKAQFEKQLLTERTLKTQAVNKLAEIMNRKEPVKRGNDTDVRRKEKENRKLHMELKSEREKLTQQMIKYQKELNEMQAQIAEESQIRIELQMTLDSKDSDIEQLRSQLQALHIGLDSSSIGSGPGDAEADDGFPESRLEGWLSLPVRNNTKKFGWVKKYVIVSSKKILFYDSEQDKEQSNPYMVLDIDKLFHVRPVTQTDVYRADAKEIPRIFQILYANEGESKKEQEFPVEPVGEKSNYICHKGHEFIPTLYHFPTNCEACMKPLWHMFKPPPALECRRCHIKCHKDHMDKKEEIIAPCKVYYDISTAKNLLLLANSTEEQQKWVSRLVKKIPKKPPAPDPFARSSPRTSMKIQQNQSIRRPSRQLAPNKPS

| IC50 (ROCK1) [µM] | IC50 (ROCK2) [µM] | Molecule | other results |
| --- | --- | --- | --- |
| 0.242 | 0.336 | CC(O)c1cc(C(=O)N[C@H](C)c2ccccc2F)ccc1-c1cn[nH]c1 (stereo partly drawn) [Example 282, N-[(1R)-1-(2-fluorophenyl)ethyl]-3-(1-hydroxyethyl)-4-(1H-pyrazol-4-yl)benzamide] |  |
| 0.0506 | 0.00543 | CC(O)c1cc(C(=O)N[C@H](C)c2ccccc2F)ccc1-c1cn[nH]c1 (stereo partly drawn) [Example 283, N-[(1R)-1-(2-fluorophenyl)ethyl]-3-(1-hydroxyethyl)-4-(1H-pyrazol-4-yl)benzamide] |  |
| 0.842 | 0.183 | CCC(O)c1cc(C(=O)N[C@H](C)c2ccccc2)ccc1-c1cn[nH]c1 (stereo partly drawn) [Example 284, 3-(1-hydroxypropyl)-N-[(1R)-1-phenylethyl]-4-(1H-pyrazol-4-yl)benzamide] |  |
| > 2 | 1.48 | CCC(O)c1cc(C(=O)N[C@H](C)c2ccccc2)ccc1-c1cn[nH]c1 (stereo partly drawn) [Example 285, 3-(1-hydroxypropyl)-N-[(1R)-1-phenylethyl]-4-(1H-pyrazol-4-yl)benzamide] |  |
| 0.0976 | 0.19 | CCC(O)c1cc(C(=O)N[C@H](C)c2ccccc2)ccc1-c1cn[nH]c1 (stereo partly drawn) [Example 286, 3-(1-hydroxypropyl)-N-[(1R)-1-phenylethyl]-4-(1H-pyrazol-4-yl)benzamide] |  |
| 0.111 | 0.0278 | CC(O)c1cc(C(=O)NC(C)c2c(F)cccc2F)ccc1-c1cn[nH]c1 (centres unmarked) [Example 287, N-[1-(2,6-difluorophenyl)ethyl]-3-(1-hydroxyethyl)-4-(1H-pyrazol-4-yl)benzamide] |  |
| 0.15 | 0.446 | CC(O)c1cc(C(=O)NC(C)c2c(F)cccc2F)ccc1-c1cn[nH]c1 (centres unmarked) [Example 288, N-[1-(2,6-difluorophenyl)ethyl]-3-(1-hydroxyethyl)-4-(1H-pyrazol-4-yl)benzamide] |  |
| 0.275 | 0.0743 | CC(O)c1cc(C(=O)NCc2c(F)cccc2Cl)ccc1-c1cn[nH]c1 (centres unmarked) [Example 289, N-[(2-chloro-6-fluorophenyl)methyl]-3-(1-hydroxyethyl)-4-(1H-pyrazol-4-yl)benzamide] |  |
| 1.95 | 1.76 | CC(O)c1cc(C(=O)NCc2c(F)cccc2Cl)ccc1-c1cn[nH]c1 (centres unmarked) [Example 290, N-[(2-chloro-6-fluorophenyl)methyl]-3-(1-hydroxyethyl)-4-(1H-pyrazol-4-yl)benzamide] |  |
| 0.138 | 0.104 | CC(O)c1cc(C(=O)NCc2c(F)cccc2Cl)ccc1-c1cn[nH]c1 (centres unmarked) [Example 291, N-[(2-chloro-6-fluorophenyl)methyl]-3-(1-hydroxyethyl)-4-(1H-pyrazol-4-yl)benzamide] |  |
| 1.14 | 1.51 | CC(O)c1cc(C(=O)N[C@H](C)c2c(F)cccc2F)ccc1-c1cn[nH]c1 (stereo partly drawn) [Example 292, N-[(1R)-1-(2,6-difluorophenyl)ethyl]-3-(1-hydroxyethyl)-4-(1H-pyrazol-4-yl)benzamide] |  |
| 0.0982 | 0.0162 | CC(O)c1cc(C(=O)N[C@H](C)c2c(F)cccc2F)ccc1-c1cn[nH]c1 (stereo partly drawn) [Example 293, N-[(1R)-1-(2,6-difluorophenyl)ethyl]-3-(1-hydroxyethyl)-4-(1H-pyrazol-4-yl)benzamide] |  |
| > 2 | 0.613 | CC(=O)c1cc(C(=O)N[C@H](C)c2ccccc2)ccc1-c1cn[nH]c1 [Example 294, (R)-3-Acetyl-N-(1-phenylethyl)-4-(1H-pyrazol-4-yl)benzamide] |  |
| 1.7 | 0.563 | COC(=O)c1cc(C(=O)N[C@H](C)c2ccc(F)cc2)ccc1-c1cn[nH]c1 [Example 295, (R)-Methyl 5-((1-(4-fluorophenyl)ethyl)carbamoyl)-2-(1H-pyrazol-4-yl)benzoate] |  |
| 0.145 | 0.0546 | C[C@@H](NC(=O)c1ccc(-c2cn[nH]c2)c(N(C)C)c1)c1ccc(F)cc1 [Example 296, (R)-3-(Dimethylamino)-N-(1-(4-fluorophenyl)ethyl)-4-(1H-pyrazol-4-yl)benzamide] |  |
| 1.76 | 0.518 | CNc1cc(C(=O)N[C@H](C)c2ccc(F)cc2)ccc1-c1cn[nH]c1 [Example 297, (R)-N-(1-(4-Fluorophenyl)ethyl)-3-(methylamino)-4-(1H-pyrazol-4-yl)benzamide] |  |
| 0.839 | 0.667 | COc1cc(C(=O)N(Cc2ccccc2F)CC(C)(C)O)ccc1-c1cn[nH]c1 [Example 298, N-(2-Fluorobenzyl)-N-(2-hydroxy-2-methylpropyl)-3-methoxy-4-(1H-pyrazol-4-yl)benzamide] |  |

| IC50 (ROCK1) [µM] | IC50 (ROCK2) [µM] | Molecule | other results |
| --- | --- | --- | --- |
| 0.0306 | 0.021 | COc1cccc([C@@H](C)NC(=O)c2ccc(-c3c[nH]nc3C#N)cc2OC)c1 [Example 303, 4-(3-Cyano-1H-pyrazol-4-yl)-2-methoxy-N-[(1R)-1-(3-methoxyphenyl)ethyl]benzamide] |  |
| 0.133 | 0.0245 | COc1cccc([C@@H](C)NC(=O)c2ccc(-c3c(C)n[nH]c3C)cc2OC)c1 [Example 304, 4-(3,5-Dimethyl-1H-pyrazol-4-yl)-2-methoxy-N-[(1R)-1-(3-methoxyphenyl)ethyl]benzamide] |  |
| 0.00215 | 0.00065 | COc1cccc([C@@H](C)NC(=O)c2ccc(-c3c[nH]nc3C)cc2OC)c1 [Example 305, 4-(3-Methyl-1H-pyrazol-4-yl)-2-methoxy-N-[(1R)-1-(3-methoxyphenyl)ethyl]benzamide] |  |
| 0.0638 | 0.0435 | COc1cccc([C@@H](C)NC(=O)c2ccc(-c3c[nH]nc3CO)cc2OC)c1 [Example 306, (R)-4-(3-(Hydroxymethyl)-1H-pyrazol-4-yl)-2-methoxy-N-(1-(3-methoxyphenyl)ethyl)benzamide] |  |
| 0.544 | 0.205 | COc1cccc([C@@H](C)NC(=O)c2ccc(-c3c[nH]nc3C(C)O)cc2OC)c1 (stereo partly drawn) [Example 307, 4-(3-(1-Hydroxyethyl)-1H-pyrazol-4-yl)-2-methoxy-N-((R)-1-(3-methoxyphenyl)ethyl)benzamide] |  |
| 0.284 | 0.0375 | COc1cccc([C@@H](C)NC(=O)c2ccc(-c3cn[nH]c3)cc2OCCN(C)C)c1 [Example 308, 2-[2-(Dimethylamino)ethoxy]-N-[(1R)-1-(3-methoxyphenyl)ethyl]-4-(1H-pyrazol-4-yl)benzamide] |  |
| > 2 | 0.771 | Cc1n[nH]cc1-c1cc(OCCN(C)C)c(C(=O)N[C@H](C)c2ccccc2)cc1F [Example 309, 2-[2-(dimethylamino)ethoxy]-5-fluoro-4-(3-methyl-1H-pyrazol-4-yl)-N-[(1R)-1-phenylethyl]benzamide] |  |
| 0.0223 | 0.0348 | COc1cccc([C@@H](C)NC(=O)c2ccc(-c3c[nH]nc3C)cc2OCCN(C)C)c1 [Example 311, 2-[2-(dimethylamino)ethoxy]-N-[(1R)-1-(3-methoxyphenyl)ethyl]-4-(3-methyl-1H-pyrazol-4-yl)benzamide] |  |
| > 2 | 1.49 | COc1cc(-c2cn[nH]c2)cc(F)c1C(=O)N[C@H](C)c1ccccc1 [Example 312, 2-fluoro-6-methoxy-N-[(1R)-1-phenylethyl]-4-(1H-pyrazol-4-yl)benzamide] |  |
| 0.0211 | 0.0016 | CCOc1cc(-c2cn[nH]c2)ccc1C(=O)N[C@H](C)c1cccc(OC)c1 [Example 313, 2-ethoxy-N-[(1R)-1-(3-methoxyphenyl)ethyl]-4-(1H-pyrazol-4-yl)benzamide] |  |
| 0.0168 | 0.00337 | COCCOc1cc(-c2cn[nH]c2)ccc1C(=O)N[C@H](C)c1cccc(OC)c1 [Example 314, 2-(2-methoxyethoxy)-N-[(1R)-1-(3-methoxyphenyl)ethyl]-4-(1H-pyrazol-4-yl)benzamide] |  |
| 0.00719 | 0.00231 | COc1cccc([C@@H](C)NC(=O)c2ccc(-c3cn[nH]c3)cc2OCCO)c1 [Example 315, 2-(2-hydroxyethoxy)-N-[(1R)-1-(3-methoxyphenyl)ethyl]-4-(1H-pyrazol-4-yl)benzamide] |  |
| 0.0822 | 0.0109 | COc1ccc(F)c(C(C)NC(=O)c2ccc(-c3cn[nH]c3)c(C(C)O)c2)c1 (centres unmarked) [Example 316, N-[1-(2-fluoro-5-methoxyphenyl)ethyl]-3-(1-hydroxyethyl)-4-(1H-pyrazol-4-yl)benzamide] |  |
|  |  | C[C@@H](N)[C@H]1CC[C@H](C(=O)Nc2ccncc2)CC1 [Example Y-27632] | ventricular hypertrophy, fibrosis and function [1]: improve ventricular hypertrophy, fibrosis and function; neointimal formation (neointimal formation): inhibited neointimal formation; blood pressure ([2]; control rats): only a minor effect on blood pressure; blood pressure ([2]; spontaneously hypertensive rat, renal hypertensive rat and deoxycortisone acetate salt hypertensive rat models): significantly decrease blood pressure |
|  |  | O=S(=O)(c1cccc2cnccc12)N1CCCNCC1 [fasudil] | coronary stenosis and coronary constrictive remodeling [3]: progressively reduce coronary stenosis, as well as promote a regression of coronary constrictive remodeling |
| 0.124 | 0.0497 | N-(3- chlorobenzyl)- 3-methoxy-4- (1H-pyrazol-4- yl)benzamide [Example 34] |  |
| 0.0265 | 0.00493 | N-(4- chlorobenzyl)- 3-methoxy-4- (1H-pyrazol-4- yl)benzamide [Example 33] |  |

| Molecule | IC50 (ROCK1) [µM] | IC50 (ROCK2) [µM] | other results |
| --- | --- | --- | --- |
| COC(=O)c1n[nH]cc1-c1ccc(C(=O)N[C@H](C)c2cccc(OC)c2)c(OC)c1 [Example 302, (R)-Methyl 4-(3-methoxy-4-((1-(3-methoxyphenyl)ethyl)carbamoyl)phenyl)-1H-pyrazole-3-carboxylate] | 0.0709 | 0.0696 |  |
